Measured values as given in PubChem BioAssay AID1053149 (Broad Institute, 2014).

Key:
[1] = test system: HepG2 secreted PCSK9, ELISA, 24 h; assay: reduction of secreted PCSK9 protein, dose response, orthogonal assay for Trib1 inducer project, cell-based, HepG2, ELISA, plate reader, cherry-pick (AID 1053149)
[2] = as above; conditions: HepG2 secreted PCSK9, ELISA, 24 h; measured here: maximal PCSK9 decrease; stronger effect = higher value

Row | Structure (SMILES) | AC50 [1] [µM] | decrease in PCSK9 [2] [%]
1 | CN1C(=O)c2cc(NC(=O)c3ccc(C(F)(F)F)cc3)ccc2OC[C@@H]2O[C@@H](CC(=O)NC3Cc4ccccc4C3)CC[C@@H]21 | 6.6 | 80
2 | CN1C(=O)c2cc(NC(=O)c3ccc(C(F)(F)F)cc3)ccc2OC[C@@H]2O[C@H](CC(=O)NC3Cc4ccccc4C3)CC[C@@H]21 | 0.6 | 79
